Where a name gives a salt, the structure may show the parent alone.
How the values were obtained:
[1] = target: T1, serotonin transporter (Rattus norvegicus, UniProt P31652); assay: Displacement of 3H-paroxetine from male rat frontal cortical membranes (serotonin transporter affinity); assay type: binding; conditions: 3H-paroxetine displacement, read-out: 5-HT Transporter Affinity Ki
T1 construct: displace ^3H-paroxetine from male rat frontal cortical membranes; from tissue; host or cells: male rat frontal cortex membranes
Source text: Affinity of Compounds of the Invention for the Serotonin Transporter

[2] = target: T2, human 5HT1A receptors (Homo sapiens, UniProt P08908); assay: Displacement of [3H] 8-OH-DPAT from 5HT1A receptor, CHO cells stably transfected with human 5HT1A receptors; assay type: binding; conditions: [3H] 8-OH-DPAT displacement, CHO cells with human 5HT1A; read-out: 5HT1A Receptor Affinity Ki
T2 construct: expressed in transfected cells; host or cells: CHO cells
T2 sequence (P08908 1-422): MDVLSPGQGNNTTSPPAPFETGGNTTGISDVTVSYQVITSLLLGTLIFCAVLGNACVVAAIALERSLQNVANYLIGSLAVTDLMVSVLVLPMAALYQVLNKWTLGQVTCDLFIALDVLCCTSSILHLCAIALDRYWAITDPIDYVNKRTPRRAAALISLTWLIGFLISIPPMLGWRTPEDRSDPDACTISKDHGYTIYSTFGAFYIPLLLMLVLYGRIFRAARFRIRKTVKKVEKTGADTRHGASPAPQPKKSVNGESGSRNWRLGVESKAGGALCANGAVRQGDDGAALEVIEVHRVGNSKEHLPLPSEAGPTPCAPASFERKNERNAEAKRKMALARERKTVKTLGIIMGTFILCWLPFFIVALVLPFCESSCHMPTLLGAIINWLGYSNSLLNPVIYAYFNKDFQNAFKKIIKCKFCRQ
Source text: High affinity for the serotonin 5HT1A receptor was established by testing the claimed compound's ability to displace [^3H] 8-OH-DPAT (dipropylamino-tetralin) from the 5HT1A serotonin receptor following a modification of the procedure of Hall et al., J. Neurochem. 44, 1685 (1985) which utilizes CHO cells stably transfected with human 5HT1A receptors.

T1 sequence (P31652 whole entry): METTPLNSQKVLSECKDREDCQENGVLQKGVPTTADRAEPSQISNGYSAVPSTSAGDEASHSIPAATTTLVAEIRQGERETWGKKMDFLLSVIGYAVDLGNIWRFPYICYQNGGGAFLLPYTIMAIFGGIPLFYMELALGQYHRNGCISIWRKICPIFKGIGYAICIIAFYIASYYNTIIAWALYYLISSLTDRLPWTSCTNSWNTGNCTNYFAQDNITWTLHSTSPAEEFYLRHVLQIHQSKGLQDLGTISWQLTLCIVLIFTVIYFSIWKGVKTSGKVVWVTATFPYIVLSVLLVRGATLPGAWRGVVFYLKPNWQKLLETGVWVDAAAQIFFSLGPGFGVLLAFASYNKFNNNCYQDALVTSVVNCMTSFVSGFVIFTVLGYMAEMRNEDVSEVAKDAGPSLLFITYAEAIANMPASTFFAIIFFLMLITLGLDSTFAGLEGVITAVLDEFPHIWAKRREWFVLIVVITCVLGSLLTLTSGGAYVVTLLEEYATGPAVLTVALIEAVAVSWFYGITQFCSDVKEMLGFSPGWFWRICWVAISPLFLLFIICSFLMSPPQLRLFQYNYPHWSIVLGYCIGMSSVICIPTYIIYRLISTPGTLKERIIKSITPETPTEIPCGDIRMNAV

| melting point | Ki [1] | Ki [2] | Compound |
| --- | --- | --- | --- |
| 216 to 219 °C (dec.) | – | – | Cc1ccc2c3c(ccc2n1)OC[C@H](CN1CCC(Oc2ccc4c(c2)NC(=O)CO4)CC1)O3 (as salt: hydrochloride) [Example 1, 6-[(1-{[(2S)-8-methyl-2,3-dihydro[1,4]dioxino[2,3-f]quinolin-2-yl]methyl}piperidin-4-yl)oxy]-2H-1,4-benzoxazin-3(4H)-one dihydrochloride salt] |
| 215 °C (dec.) | – | – | Cc1ccc2c3c(ccc2n1)OC[C@H](CN1CCC(Cc2ccc4c(c2)NC(=O)CO4)CC1)O3 (as salt: hydrochloride) [Example 2, 6-[(1-{[(2S)-8-Methyl-2,3-dihydro[1,4]dioxino[2,3-f]quinolin-2-yl]methyl}piperidin-4-yl)methyl]-2H-1,4-benzoxazin-3(4H)-one dihydrochloride] |
| 164 °C (dec.) | – | – | Cc1ccc2c3c(ccc2n1)OC[C@H](CN1CCC(Oc2ccc4c(c2)N(C)C(=O)CO4)CC1)O3 (as salt: hydrochloride) [Example 5, 4-Methyl-6-[(1-{[(2S)-8-methyl-2,3-dihydro[1,4]dioxino[2,3-f]quinolin-2-yl]methyl}piperidin-4-yl)oxy]-2H-1,4-benzoxazin-3(4H)-one dihydrochloride salt] |
| 184 °C (dec.) | – | – | Cc1ccc2c3c(ccc2n1)OC[C@H](CNCCCOc1ccc2c(c1)NC(=O)CO2)O3 (as salt: hydrochloride) [Example 7, 6-[3-({[(2S)-8-Methyl-2,3-dihydro[1,4]dioxino[2,3-f]quinolin-2-yl]methyl}amino)propoxy]-2H-1,4-benzoxazin-3(4H)-one dihydrochloride salt] |
| 183 °C (dec.) | – | – | Cc1ccc2c3c(ccc2n1)OC[C@H](CN1CC[C@H](Oc2ccc4c(c2)NC(=O)CO4)C1)O3 (as salt: hydrochloride) [Example 8, 6-{[(3S)-1-{[(2S)-8-Methyl-2,3-dihydro[1,4]dioxino[2,3-f]quinolin-2-yl]methyl}pyrrolidin-3-yl]oxy}-2H-1,4-benzoxazin-3(4H)-one dihydrochloride salt] |
| 183 °C (dec.) | – | – | Cc1ccc2c3c(ccc2n1)OC[C@H](CN1CC[C@@H](Oc2ccc4c(c2)NC(=O)CO4)C1)O3 (as salt: hydrochloride) [Example 9, 6-{[(3R)-1-{[(2S)-8-Methyl-2,3-dihydro[1,4]dioxino[2,3-f]quinolin-2-yl]methyl}pyrrolidin-3-yl]oxy}-2H-1,4-benzoxazin-3(4H)-one dihydrochloride salt] |
| 193 to 194 °C | – | – | CNCCCOc1ccc2c(c1)NC(=O)CO2 (as salt: hydrochloride) [Example 11, 6-[3-(Methylamino)propoxy]-2H-1,4-benzoxazin-3(4H)-one] |
| 205 to 208 °C | – | – | Cc1ccc2c3c(ccc2n1)OC[C@H](CN1CCC(Cc2ccc4c(c2)N(C)C(=O)CO4)CC1)O3 (as salt: hydrochloride) [Example 12, 4-Methyl-6-[(1-{[(2S)-8-methyl-2,3-dihydro[1,4]dioxino[2,3-f]quinolin-2-yl]methyl}piperidin-4-yl)methyl]-2H-1,4-benzoxazin-3(4H)-one dihydrochloride salt] |
| 185 to 189 °C | – | – | Cc1ccc2c3c(ccc2n1)OC[C@H](CN1CCC(CCc2ccc4c(c2)N(C)C(=O)CO4)CC1)O3 (as salt: hydrochloride) [Example 13, 4-Methyl-6-[2-(1-{[(2S)-8-methyl-2,3-dihydro[1,4]dioxino[2,3-f]quinolin-2-yl]methyl}piperidin-4-yl)ethyl]-2H-1,4-benzoxazin-3(4H)-one dihydrochloride salt] |
| 202 to 205 °C | – | – | Cc1ccc2c3c(ccc2n1)OC[C@H](CN1CCC(CCc2ccc4c(c2)NC(=O)CO4)CC1)O3 (as salt: hydrochloride) [Example 14, 6-[2-(1-{[(2S)-8-Methyl-2,3-dihydro[1,4]dioxino[2,3-f]quinolin-2-yl]methyl}piperidin-4-yl)ethyl]-2H-1,4-benzoxazin-3(4H)-one dihydrochloride salt] |
| 249 to 251 °C | – | – | Cc1ccc2c3c(ccc2n1)OC[C@H](CN1CCCC(Cc2ccc4c(c2)N(C)C(=O)CO4)C1)O3 (stereo partly drawn) (as salt: hydrochloride) [Example 15, 4-Methyl-6-[(1-{[(2S)-8-methyl-2,3-dihydro[1,4]dioxino[2,3-f]quinolin-2-yl]methyl}piperidin-3-yl)methyl]-2H-1,4-benzoxazin-3(4H)-one dihydrochloride salt] |
| 200 to 205 °C | – | – | Cc1ccc2c3c(ccc2n1)OC[C@H](CN1CCCC(Cc2ccc4c(c2)NC(=O)CO4)C1)O3 (stereo partly drawn) (as salt: hydrochloride) [Example 16, 6-[(1-{[(2S)-8-Methyl-2,3-dihydro[1,4]dioxino[2,3-f]quinolin-2-yl]methyl}piperidin-3-yl)methyl]-2H-1,4-benzoxazin-3(4H)-one dihydrochloride salt] |
| 240 °C (dec.) | – | – | Cc1ccc2c3c(ccc2n1)OC[C@H](CNC1CCN(c2ccc4c(c2)NC(=O)CO4)CC1)O3 (as salt: hydrochloride) [Example 18, 6-(4-{[(8-methyl-2,3-dihydro[1,4]dioxino[2,3-f]quinolin-2-yl)methyl]amino}piperidin-1-yl)-2H-1,4-benzoxazin-3(4H)-one dihydrochloride salt] |
| – | 8.9 nM | 0.16 nM | Cc1ccc2c3c(ccc2n1)OC[C@H](CN1CCC(Cc2ccc4c(c2)NC(=O)CO4)CC1)O3 [Example 2, 6-[(1-{[(2S)-8-Methyl-2,3-dihydro[1,4]dioxino[2,3-f]quinolin-2-yl]methyl}piperidin-4-yl)methyl]-2H-1,4-benzoxazin-3(4H)-one dihydrochloride] |
| – | 11 nM | 0.54 nM | Cc1ccc2c3c(ccc2n1)OC[C@H](CN1CCC(Oc2ccc4c(c2)N(C)C(=O)CO4)CC1)O3 [Example 5, 4-Methyl-6-[(1-{[(2S)-8-methyl-2,3-dihydro[1,4]dioxino[2,3-f]quinolin-2-yl]methyl}piperidin-4-yl)oxy]-2H-1,4-benzoxazin-3(4H)-one dihydrochloride salt] |
| – | – | 0.1 nM | Cc1ccc2c3c(ccc2n1)OC[C@H](CNCCCOc1ccc2c(c1)NC(=O)CO2)O3 [Example 7, 6-[3-({[(2S)-8-Methyl-2,3-dihydro[1,4]dioxino[2,3-f]quinolin-2-yl]methyl}amino)propoxy]-2H-1,4-benzoxazin-3(4H)-one dihydrochloride salt] |
| – | 18.2 nM | 1.49 nM | Cc1ccc2c3c(ccc2n1)OC[C@H](CN1CC[C@H](Oc2ccc4c(c2)NC(=O)CO4)C1)O3 [Example 8, 6-{[(3S)-1-{[(2S)-8-Methyl-2,3-dihydro[1,4]dioxino[2,3-f]quinolin-2-yl]methyl}pyrrolidin-3-yl]oxy}-2H-1,4-benzoxazin-3(4H)-one dihydrochloride salt] |
| – | 4.5 nM | 3.53 nM | Cc1ccc2c3c(ccc2n1)OC[C@H](CN1CC[C@@H](Oc2ccc4c(c2)NC(=O)CO4)C1)O3 [Example 9, 6-{[(3R)-1-{[(2S)-8-Methyl-2,3-dihydro[1,4]dioxino[2,3-f]quinolin-2-yl]methyl}pyrrolidin-3-yl]oxy}-2H-1,4-benzoxazin-3(4H)-one dihydrochloride salt] |
| – | 81 nM | – | CNCCCOc1ccc2c(c1)NC(=O)CO2 [Example 11, 6-[3-(Methylamino)propoxy]-2H-1,4-benzoxazin-3(4H)-one] |
| – | 6.65 nM | 0.29 nM | Cc1ccc2c3c(ccc2n1)OC[C@H](CN1CCC(Cc2ccc4c(c2)N(C)C(=O)CO4)CC1)O3 [Example 12, 4-Methyl-6-[(1-{[(2S)-8-methyl-2,3-dihydro[1,4]dioxino[2,3-f]quinolin-2-yl]methyl}piperidin-4-yl)methyl]-2H-1,4-benzoxazin-3(4H)-one dihydrochloride salt] |

| Compound | melting point | Ki [1] | Ki [2] |
| --- | --- | --- | --- |
| Cc1ccc2c3c(ccc2n1)OC[C@H](CNCCCCOc1ccc2c(c1)NC(=O)CO2)O3 (as salt: hydrochloride) [Example 6, 6-[4-({[(2S)-8-Methyl-2,3-dihydro[1,4]dioxino[2,3-f]quinolin-2-yl]methyl}amino)butoxy]-2H-1,4-benzoxazin-3(4H)-one dihydrochloride salt] | 143 °C (dec.) | – | – |
| CNCCCCOc1ccc2c(c1)NC(=O)CO2 (as salt: hydrochloride) [Example 10, 6-[4-(Methylamino)butoxy]-2H-1,4-benzoxazin-3(4H)-one hydrochloride salt] | 210 to 212 °C | – | – |
| Cc1ccc2c3c(ccc2n1)OC[C@H](CNCCCCOc1ccc2c(c1)NC(=O)CO2)O3 [Example 6, 6-[4-({[(2S)-8-Methyl-2,3-dihydro[1,4]dioxino[2,3-f]quinolin-2-yl]methyl}amino)butoxy]-2H-1,4-benzoxazin-3(4H)-one dihydrochloride salt] | – | 11.9 nM | 0.25 nM |
| CNCCCCOc1ccc2c(c1)NC(=O)CO2 [Example 10, 6-[4-(Methylamino)butoxy]-2H-1,4-benzoxazin-3(4H)-one hydrochloride salt] | – | 58.5 nM | – |

— patent publication US20090042874A1, “ANTIDEPRESSANT HETEROARYL DERIVATIVES OF HETEROCYCLE-FUSED BENZODIOXANS” (WYETH, priority 2007, published 2009)
